Active and inactive are the calls of the source. No cut-off for these calls is given here.
What was measured:
[1] = biological target: Sodium-dependent serotonin transporter (Rattus norvegicus, UniProt P31652); test: Displacement of [3H]citalopram from SERT in rat cerebral cortex by liquid scintillation counting; type: tissue-based
[2] = biological target: T1, 5-hydroxytryptamine receptor 1A (Rattus norvegicus, UniProt P19327); test: Displacement of [3H]8-OH-DPAT from 5-HT1A receptor in rat hippocampus; type: tissue-based
T1 sequence (P19327 whole entry): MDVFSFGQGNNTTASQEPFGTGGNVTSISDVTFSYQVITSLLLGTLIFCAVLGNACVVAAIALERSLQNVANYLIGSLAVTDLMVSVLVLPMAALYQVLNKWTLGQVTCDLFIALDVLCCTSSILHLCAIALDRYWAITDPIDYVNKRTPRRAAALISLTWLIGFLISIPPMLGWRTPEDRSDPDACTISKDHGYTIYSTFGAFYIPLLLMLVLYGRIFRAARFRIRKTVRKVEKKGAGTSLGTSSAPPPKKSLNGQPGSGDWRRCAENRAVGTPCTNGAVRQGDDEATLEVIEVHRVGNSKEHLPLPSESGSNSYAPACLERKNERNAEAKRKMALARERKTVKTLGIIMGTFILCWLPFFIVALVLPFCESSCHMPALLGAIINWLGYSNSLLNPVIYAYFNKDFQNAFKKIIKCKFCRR

[3] = tested on: Mus musculus; test: Antidepressant activity in Swiss albino mouse assessed as reduction of immobility time at 2 mg/kg, sc administered 30 mins before test measured 6 mins test session after 2 mins habituation period by forced swimming test; type: functional; design: scale not given: the % may be the effect or the level left; details: route subcutaneous
[4] = tested on: Mus musculus; test: Antidepressant activity in Swiss albino mouse assessed as reduction of immobility time at 1 mg/kg, sc administered 30 mins before test measured 6 mins test session after 2 mins habituation period by forced swimming test; type: functional; design: scale not given: the % may be the effect or the level left; details: route subcutaneous
[5] = tested on: Mus musculus; test: Effect on hypothermia in Swiss albino mouse assessed as change in rectal body temperature at 10 mg/kg, ip after 90 mins by inducible hypothermia test; type: functional, organism-based; design: dose 10 mg/kg
[6] = tested on: Mus musculus; test: Effect on hypothermia in Swiss albino mouse assessed as change in rectal body temperature at 10 mg/kg, ip after 60 mins by inducible hypothermia test; type: functional, organism-based; design: dose 10 mg/kg
[7] = tested on: Mus musculus; test: Effect on spontaneous locomotor activity in Swiss albino mouse assessed as number of light-beam crossings in actiometers pretreated for 30 mins at 10 mg/kg, ip measured during 6 mins post drug dose; type: functional; details: route intraperitoneal
[8] = tested on: Mus musculus; test: Effect on hypothermia in Swiss albino mouse assessed as change in rectal body temperature at 5 mg/kg, ip after 90 mins by inducible hypothermia test; type: functional, organism-based; design: dose 5 mg/kg
[9] = tested on: Mus musculus; test: Effect on hypothermia in Swiss albino mouse assessed as change in rectal body temperature at 10 mg/kg, ip dosed 15 mins after 0.1 mg/kg, sc WAY 100635 challenge measured after 60 mins by inducible hypothermia test; type: functional, organism-based
[10] = tested on: Mus musculus; test: Effect on hypothermia in Swiss albino mouse assessed as change in rectal body temperature at 5 mg/kg, ip after 60 mins by inducible hypothermia test; type: functional, organism-based; design: dose 5 mg/kg
[11] = tested on: Mus musculus; test: Effect on hypothermia in Swiss albino mouse assessed as change in rectal body temperature at 10 mg/kg, ip after 30 mins by inducible hypothermia test; type: functional, organism-based; design: dose 10 mg/kg
[12] = tested on: Mus musculus; test: Antidepressant activity in Swiss albino mouse assessed as reduction of immobility time at 10 mg/kg, ip administered 30 mins before test measured 6 mins test session after 2 mins habituation period by forced swimming test; type: functional; design: scale not given: the % may be the effect or the level left
[13] = tested on: Mus musculus; test: Effect on hypothermia in Swiss albino mouse assessed as change in rectal body temperature at 5 mg/kg, ip after 120 mins by inducible hypothermia test; type: functional, organism-based; design: dose 5 mg/kg
[14] = tested on: Mus musculus; test: Effect on hypothermia in Swiss albino mouse assessed as change in rectal body temperature at 10 mg/kg, ip after 120 mins by inducible hypothermia test; type: functional, organism-based; design: dose 10 mg/kg
[15] = tested on: Mus musculus; test: Antidepressant activity in Swiss albino mouse assessed as reduction of immobility time at 5 mg/kg, ip administered 30 mins before test measured 6 mins test session after 2 mins habituation period by forced swimming test; type: functional, organism-based; design: dose 5 mg/kg
[16] = tested on: Mus musculus; test: Effect on hypothermia in Swiss albino mouse assessed as change in rectal body temperature at 10 mg/kg, ip dosed 15 mins after 0.1 mg/kg, sc WAY 100635 challenge measured after 30 mins by inducible hypothermia test; type: functional, organism-based
[17] = tested on: Mus musculus; test: Effect on spontaneous locomotor activity in Swiss albino mouse assessed as number of light-beam crossings in actiometers pretreated for 30 mins at 10 mg/kg, ip measured during 30 mins post drug dose; type: functional; details: route intraperitoneal
[18] = tested on: Mus musculus; test: Effect on hypothermia in Swiss albino mouse assessed as change in rectal body temperature at 5 mg/kg, ip after 30 mins by inducible hypothermia test; type: functional, organism-based; design: dose 5 mg/kg
[19] = tested on: Mus musculus; test: Effect on hypothermia in Swiss albino mouse assessed as change in rectal body temperature at 20 mg/kg, ip after 60 mins by inducible hypothermia test; type: functional, organism-based; design: dose 20 mg/kg
[20] = organism: Mus musculus; details: Swiss albino, 20 mg/kg
[21] = tested on: Mus musculus; test: Effect on hypothermia in Swiss albino mouse assessed as change in rectal body temperature at 20 mg/kg, ip after 90 mins by inducible hypothermia test; type: functional, organism-based; design: dose 20 mg/kg
[22] = organism: Mus musculus; details: Swiss albino, 20 mg/kg; remark: listed apart in the source
[23] = organism: Mus musculus; details: Swiss albino, 20 mg/kg; remark: listed apart in the source
[24] = tested on: Mus musculus; test: Effect on hypothermia in Swiss albino mouse assessed as change in rectal body temperature at 20 mg/kg, ip after 30 mins by inducible hypothermia test; type: functional, organism-based; design: dose 20 mg/kg
[25] = tested on: Mus musculus; test: Effect on hypothermia in Swiss albino mouse assessed as change in rectal body temperature at 20 mg/kg, ip after 120 mins by inducible hypothermia test; type: functional, organism-based; design: dose 20 mg/kg
[26] = organism: Mus musculus; details: Swiss albino, 20 mg/kg; remark: listed apart in the source
[27] = tested on: Mus musculus; test: Effect on hypothermia in Swiss albino mouse assessed as change in rectal body temperature at 20 mg/kg, ip dosed 15 mins after 0.1 mg/kg, sc WAY 100635 challenge measured after 60 mins by inducible hypothermia test; type: functional, organism-based
[28] = tested on: Mus musculus; test: Effect on hypothermia in Swiss albino mouse assessed as change in rectal body temperature at 20 mg/kg, ip dosed 15 mins after 0.1 mg/kg, sc WAY 100635 challenge measured after 30 mins by inducible hypothermia test; type: functional, organism-based
[29] = tested on: Mus musculus; test: Antidepressant activity in Swiss albino mouse assessed as reduction of immobility time at 20 mg/kg, ip administered 30 mins before test measured 6 mins test session after 2 mins habituation period by forced swimming test; type: functional

Sequence of Sodium-dependent serotonin transporter (P31652 whole entry): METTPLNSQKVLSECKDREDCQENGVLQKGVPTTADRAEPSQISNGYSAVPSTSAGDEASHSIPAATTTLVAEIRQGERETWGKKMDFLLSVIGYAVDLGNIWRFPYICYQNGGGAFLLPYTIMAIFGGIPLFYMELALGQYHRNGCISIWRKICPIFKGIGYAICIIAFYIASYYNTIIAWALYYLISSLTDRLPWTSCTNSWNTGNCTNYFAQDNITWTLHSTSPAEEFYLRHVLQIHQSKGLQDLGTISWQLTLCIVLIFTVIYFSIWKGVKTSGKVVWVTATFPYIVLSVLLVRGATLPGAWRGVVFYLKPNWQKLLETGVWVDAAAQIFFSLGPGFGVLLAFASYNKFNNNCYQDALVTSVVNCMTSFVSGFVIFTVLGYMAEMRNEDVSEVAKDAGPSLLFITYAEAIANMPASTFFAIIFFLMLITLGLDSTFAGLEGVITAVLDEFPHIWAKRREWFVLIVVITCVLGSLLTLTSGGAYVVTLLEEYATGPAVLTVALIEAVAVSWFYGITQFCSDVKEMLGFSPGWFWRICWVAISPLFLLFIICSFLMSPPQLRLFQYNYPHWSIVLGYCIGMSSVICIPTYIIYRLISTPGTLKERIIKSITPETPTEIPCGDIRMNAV

With Cc1[nH]c2ccccc2c1C1CCN(CCCCn2c(=O)c(-c3ccccc3Cl)c3n(c2=O)CCCC3)CC1 the Ki [1] was 480 nM and the Ki [2] was 2100 nM.
In the case of COc1ccccc1-c1c2n(c(=O)n(CCCCN3CCC(c4c(C)[nH]c5ccccc45)CC3)c1=O)CCCC2, the Ki [1] is reported as 719 nM and the Ki [2] is reported as 1600 nM.
In the case of CCCN(CCC)C1CCc2cccc(O)c2C1 (centres undefined) [8-OH-DPAT], the Activity [3] is reported as 57% and the Activity [4] is reported as 45%.
Cc1ccc(-c2c3n(c(=O)n(CCCCN4CCC(c5c[nH]c6ccccc56)CC4)c2=O)CCCC3)cc1 showed a deltaT [5] of -0.3 °C, a deltaT [6] of -0.5 °C and an Activity [7] of 114. For the same compound, the deltaT [8] was -0.3 °C, the deltaT [9] was -0.6 °C and the deltaT [10] was -0.6 °C. For the same compound, the deltaT [11] was -1 °C, the Activity ([12]; route intraperitoneal) was 34% and the Ki [1] was 76.7 nM. The deltaT [13] was -0.2 °C, the deltaT [14] was -0.2 °C and the Activity [15] was “inactive”. It also gave a Ki [2] of 48.3 nM, a deltaT [16] of -0.6 °C and an Activity [17] of 221. It also gave a deltaT [18] of -0.6 °C.
COc1ccc2[nH]cc(C3CCN(CCCCn4c(=O)c(-c5ccc(F)cc5)c5n(c4=O)CCCC5)CC3)c2c1 showed a Ki [1] of 76.1 nM and a Ki [2] of 13.9 nM.
Compound COc1ccc(-c2c3n(c(=O)n(CCCCN4CCC(c5c[nH]c6ccccc56)CC4)c2=O)CCCC3)cc1 has a deltaT [5] of -0.4 °C, a deltaT [19] of -0.7 °C and a deltaT [20] of 0.6 °C. It also gave a deltaT [6] of -0.5 °C, a deltaT [21] of -0.4 °C and a deltaT [22] of -0.3 °C. For the same compound, the deltaT [8] was -0.2 °C, the deltaT [23] was -0.5 °C and the deltaT [10] was -0.2 °C. For the same compound, the deltaT [11] was -0.7 °C, the Ki [1] was 71.6 nM and the deltaT [13] was -0.1 °C. The deltaT [14] was -0.3 °C, the Ki [2] was 20.5 nM and the deltaT [24] was -0.6 °C. It also gave a deltaT [25] of -0.3 °C, a deltaT [18] of -0.5 °C and a deltaT [26] of -0.2 °C.
O=c1c(-c2ccccc2F)c2n(c(=O)n1CCCCN1CCC(c3c[nH]c4ccccc34)CC1)CCCC2 showed a deltaT [5] of -0.8 °C, a deltaT [6] of -1 °C and an Activity [7] of 217. It also gave a deltaT [8] of -0.2 °C, a deltaT [9] of -0.4 °C and a deltaT [10] of -0.2 °C. For the same compound, the deltaT [11] was -1.2 °C, the Activity ([12]; route intraperitoneal) was 27% and the Ki [1] was 102 nM. The deltaT [13] was -0.1 °C, the deltaT [14] was -0.5 °C and the Activity [15] was “inactive”. It also gave a Ki [2] of 27.8 nM, a deltaT [16] of -0.6 °C and an Activity [17] of 333. The deltaT [18] was -0.3 °C.
Work on COc1ccc(-c2c3n(c(=O)n(CCCCN4CCC(c5c(C)[nH]c6ccccc56)CC4)c2=O)CCCC3)cc1 yielded a Ki [1] of 203 nM.
O=c1c(-c2ccccc2Cl)c2n(c(=O)n1CCCCN1CCC(c3c[nH]c4ccccc34)CC1)CCCC2 showed a Ki [1] of 101 nM and a Ki [2] of 36.2 nM.
In the case of COc1ccc2[nH]cc(C3CCN(CCCCn4c(=O)c(-c5ccc(C)cc5)c5n(c4=O)CCCC5)CC3)c2c1, the deltaT [5] is reported as -0.2 °C, the deltaT [19] is reported as -1.3 °C and the deltaT [6] is reported as -0.4 °C. The deltaT [21] was -0.8 °C, the deltaT [8] was -0.1 °C and the deltaT [10] was -0.2 °C. For the same compound, the deltaT [11] was -0.6 °C, the Activity [12] was “inactive” and the Ki [1] was 136 nM. The deltaT [13] was -0.1 °C, the deltaT [14] was -0.1 °C and the deltaT [27] was -0.4 °C. For the same compound, the Ki [2] was 23 nM, the deltaT [28] was -0.4 °C and the deltaT [24] was -1.3 °C. For the same compound, the deltaT [25] was -0.7 °C, the deltaT [18] was -0.3 °C and the Activity [29] was “inactive”.

From ChEMBL document CHEMBL1155961, “Novel 4-aryl-pyrido[1,2-c]pyrimidines with dual SSRI and 5-HT1A activity: part 2” (Eur J Med Chem, 2009)
